The source of these data is patent US10335374B2, “Tablet composition for anti-tuberculosis antibiotics” (priority 2014, dated 2019).

The structures appear in SMILES notation. Converted amounts (≈) assume the structure as drawn. Where only a bound is given, the exact number is not on record here.

Holding throughout (experiment): microbe, parasite or virus in culture
What all share (assay type): cell-based, M. tuberculosis

Assay [1] has as its system INH-R1 (isoniazid resistant).
Assay [2] deals with INH-R2 (isoniazid resistant).
Assay [3] concerns isoniazid-resistant strain. Particulars: Mycobacterium tuberculosis.
In assay [4] the test system is rifampin-resistant strain. Particulars: Mycobacterium tuberculosis.
Assay [5] concerns ofloxacin-resistant strain. Particulars: Mycobacterium tuberculosis.
The test system of assay [6] is RIF-R1 (rifampicin resistant). Conditions: Mycobacterium tuberculosis.
Assay [7] relates to RIF-R2 (rifampicin resistant). Particulars: Mycobacterium tuberculosis.
The test system of assay [8] is FQ-R1 (fluoroquinolone resistant). Particulars: Mycobacterium tuberculosis.

`NNC(=O)c1ccncc1` [Isoniazid (INH), isoniazid]: the MIC was > 200 µM in assay [1] (Mycobacterium tuberculosis); >200 µM in assay [1] (Resistant Isolate INH-R1, isoniazid-sucrose series); > 200 µM in assay [2] (Mycobacterium tuberculosis); >200 µM in assay [2] (Resistant Isolate INH-R2, isoniazid-sucrose series).

Take `NCC[C@H](O)C(=O)N[C@@H]1C[C@H](N)[C@@H](O[C@H]2O[C@H](CN)[C@@H](O)[C@H](O)[C@H]2O)[C@H](O)[C@H]1O[C@H]1O[C@H](CO)[C@@H](O)[C@H](N)[C@H]1O` [amikacin]: the MIC in assay [3] was found to be 2.05 µM (≈ 1.2 µg/mL); in assay [4] it was 0.256 µM (≈ 0.15 µg/mL); in assay [5], 0.256 µM (≈ 0.15 µg/mL).

For the molecule `CO[C@H]1/C=C/O[C@@]2(C)Oc3c(C)c(O)c4c(O)c(c(/C=N/N5CCN(C)CC5)c(O)c4c3C2=O)NC(=O)/C(C)=C\C=C\[C@H](C)[C@H](O)[C@@H](C)[C@@H](O)[C@@H](C)[C@H](OC(C)=O)[C@@H]1C` [rifampicin], the MIC is 0.02 µM (≈ 0.0165 µg/mL) in assay [1] (Mycobacterium tuberculosis); 0.0075 µM (≈ 0.00617 µg/mL) in assay [2] (Mycobacterium tuberculosis); 12.4 µM (≈ 10.2 µg/mL) in assay [6]; > 200 µM in assay [7]; 0.017 µM (≈ 0.014 µg/mL) in assay [8].
